Laboratory results published in patent publication US20230085307A1, “PYRIDAZINONE COMPOUND AND HERBICIDE” (NISSAN CHEMICAL CORPORATION, priority 2019, published 2023).

How the values were obtained:
barnyard grass [1] = assay: Test Example 4: herbicidal effect by soil treatment (Table 19, symbol H); format: in vivo, barnyard grass (Echinochloa crus-galli); conditions: amount of applied herbicide 320 g/ha
In short: (§1)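 Seeds were sown in sterilized diluvial soil and covered with about 1.5 cm of soil. An emulsion formulation diluted with water to a predetermined herbicide amount was sprayed evenly onto the soil surface. Plants grew in a greenhouse at 25° C. to 30° C., and the effect was scored three weeks after application using criteria from an earlier test.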

lambsquarters = assay: Test Example 4: herbicidal effect by soil treatment (Table 19, symbol O); format: in vivo, lambsquarters (Chenopodium album); conditions: amount of applied herbicide 320 g/ha
In short: as §1

late watergrass [2] = assay: Test Example 1: herbicidal activity, application before weed generation under submerged conditions (Table 16, symbol A); format: in vivo, late watergrass (Echinochloa oryzicola); conditions: amount of applied herbicide 320 g/ha
In short: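 Emulsion formulation, water-diluted to set dose, was put onto the flooded surface (4 cm depth, alluvial soil) the same day weeds were sown and 2.5-leaf rice transplanted. After 3 weeks at 25-30 °C under glass, each species was rated 0 (≤5% kill) to 5 (≥90% kill).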

barnyard grass [3] = assay: Test Example 5: herbicidal effect by foliage application, plastic box (Table 20, symbol H); format: in vivo, barnyard grass (Echinochloa crus-galli); conditions: foliage application, 320 g/ha
In short: (§2)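 Plants sown in sterilized diluvial soil and grown 14 days in a greenhouse at 25° C to 30° C, then sprayed on the foliage with the compound's emulsion diluted in water to a predetermined herbicide amount. Injury to weeds and crops scored three weeks after application on a visual rating scale.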

oval-leafed pondweed = assay: Test Example 2: herbicidal activity, application during weed generation under submerged conditions (Table 17, symbol C); format: in vivo, oval-leafed pondweed (Monochoria vaginalis); conditions: for herbicidal effect rating, C: oval-leafed pondweed: AAH 320 g/ha, application during weed generation, submerged conditions
In short: (§3)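 Mixed weed seedlings in alluvial soil under a 4 cm water layer, greenhouse-grown at 25–30° C. Compound given as a diluted emulsion into the floodwater at the 1–2 leaf stage; response graded after three weeks.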

blackgrass [4] = assay: Test Example 4: herbicidal effect by soil treatment (Table 19, symbol J); format: in vivo, blackgrass (Alopecurus myosuroides); conditions: amount of applied herbicide 320 g/ha
In short: as §1

persian speedwell = assay: Test Example 4: herbicidal effect by soil treatment (Table 19, symbol R); format: in vivo, Persian speedwell (Veronica persica); conditions: amount of applied herbicide 320 g/ha
In short: as §1

barnyard grass [5] = assay: Test Example 3: herbicidal effect by foliage application, Wagner pot (Table 18, symbol H); format: in vivo, barnyard grass (Echinochloa crus-galli); conditions: for Herbicidal effect on H (barnyard grass), foliage application: amount of applied herbicide 320 g/ha; for herbicidal effect on barnyard grass (H): 320 g/ha
In short: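 Plants were sown in alluvial soil held under 0.1–0.5 cm standing water and grown 14 days in a greenhouse at 25–30 °C. An emulsifiable formulation, water-diluted to the set dose, was then sprayed onto the foliage, and effects were scored three weeks later using previously defined criteria.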

false cleavers = assay: Test Example 4: herbicidal effect by soil treatment (Table 19, symbol Q); format: in vivo, false cleavers (Galium spurium); conditions: amount of applied herbicide 320 g/ha
In short: as §1

Italian ryegrass = assay: Test Example 5: herbicidal effect by foliage application, plastic box (Table 20, symbol K); format: in vivo, Italian ryegrass (Lolium multiflorum); conditions: foliage application, 320 g/ha
In short: as §2

velvetleaf [6] = assay: Test Example 5: herbicidal effect by foliage application, plastic box (Table 20, symbol M); format: in vivo, velvetleaf (Abutilon theophrasti); conditions: foliage application, 320 g/ha
In short: as §2

velvetleaf [7] = assay: Test Example 4: herbicidal effect by soil treatment (Table 19, symbol M); format: in vivo, velvetleaf (Abutilon theophrasti); conditions: amount of applied herbicide 320 g/ha
In short: as §1

southern crabgrass = assay: Test Example 4: herbicidal effect by soil treatment (Table 19, symbol F); format: in vivo, southern crabgrass (Digitaria ciliaris); conditions: amount of applied herbicide 320 g/ha
In short: as §1

late watergrass [8] = assay: Test Example 2: herbicidal activity, application during weed generation under submerged conditions (Table 17, symbol A); format: in vivo, late watergrass (Echinochloa oryzicola); conditions: for herbicidal effect rating, A: late watergrass: AAH 320 g/ha, application during weed generation, submerged conditions
In short: as §3

blackgrass [9] = assay: Test Example 5: herbicidal effect by foliage application, plastic box (Table 20, symbol J); format: in vivo, blackgrass (Alopecurus myosuroides); conditions: foliage application, 320 g/ha
In short: as §2

green foxtail = assay: Test Example 5: herbicidal effect by foliage application, plastic box (Table 20, symbol G); format: in vivo, green foxtail (Setaria viridis); conditions: foliage application, 320 g/ha
In short: as §2

chickweed = assay: Test Example 5: herbicidal effect by foliage application, plastic box (Table 20, symbol P); format: in vivo, common chickweed (Stellaria media); conditions: foliage application, 320 g/ha; for P: chickweed, herbicidal effect grade: three weeks after application
In short: as §2

[10] = evaluated 3 weeks after application
[11] = application during weed generation under submerged conditions, amount of applied herbicide 320 g/ha

For `COc1ccc(-c2oc3ccc(Cl)cc3c2-c2c(O)c(C)nn(C)c2=O)cc1` [9-002], the “H: barnyard grass, herbicidal effect grade” value (“H: barnyard grass” below) (barnyard grass [1]) was 2 (Herbicidal rate of 20% or more and less than 40%), the “O: lambsquarters, herbicidal effect grade” value (“O: lambsquarters” for short) (lambsquarters) was 4 (Herbicidal rate of 70% or more and less than 90%) and the “Herbicidal effect, A: late watergrass” value (late watergrass [2]) was 0 (Herbicidal rate of 5% or less (almost no effect)). For the same compound, the “herbicidal effect on barnyard grass (H)” value (barnyard grass [3]; three weeks after application) was 0 (Herbicidal rate of 5% or less (almost no effect)), the “herbicidal effect rating, C: oval-leafed pondweed” value (“herbicidal effect rating, C” for short) (oval-leafed pondweed) was 3 (Herbicidal rate of 40% or more and less than 70%) and the “J: blackgrass, herbicidal effect grade” value (blackgrass [4]) was 1 (Herbicidal rate of 5% or more and less than 20%). For the same compound, the “R: persian speedwell, herbicidal effect grade” value (“R: persian speedwell” below) (persian speedwell) was 4 (Herbicidal rate of 70% or more and less than 90%), the “Herbicidal effect on H (barnyard grass), foliage application” value (barnyard grass [5]) was 3 (Herbicidal rate of 40% or more and less than 70%) and the “Q: false cleavers, herbicidal effect grade” value (false cleavers) was 0 (Herbicidal rate of 5% or less (almost no effect)). For the same compound, the “herbicidal effect on Italian ryegrass (K)” value (Italian ryegrass; three weeks after application) was 3 (Herbicidal rate of 40% or more and less than 70%), the “herbicidal effect on velvetleaf (M)” value (velvetleaf [6]; three weeks after application) was 5 (Herbicidal rate of 90% or more (almost completely withered)) and the “M: velvetleaf, herbicidal effect grade” value (velvetleaf [7]) was 2 (Herbicidal rate of 20% or more and less than 40%). The “F: southern crabgrass, herbicidal effect grade” value (“F: southern crabgrass” below) (southern crabgrass) was 2 (Herbicidal rate of 20% or more and less than 40%), the “herbicidal effect rating, A: late watergrass” value (late watergrass [8]) was 0 (Herbicidal rate of 5% or less (almost no effect)) and the “herbicidal effect on blackgrass (J)” value (blackgrass [9]; three weeks after application) was 0 (Herbicidal rate of 5% or less (almost no effect)). The “herbicidal effect on green foxtail (G)” value (green foxtail; three weeks after application) was 0 (Herbicidal rate of 5% or less (almost no effect)).
For `Cc1ccc2oc(-c3ccc(SC(C)C)cc3)c(-c3c(O)c(C)nn(C)c3=O)c2c1` [9-059], the “H: barnyard grass” value (barnyard grass [1]) was 1 (Herbicidal rate of 5% or more and less than 20%), the “O: lambsquarters” value (lambsquarters) was 5 (Herbicidal rate of 90% or more (almost completely withered)) and the “Herbicidal effect, A: late watergrass” value (late watergrass [2]) was 5 (Herbicidal rate of 90% or more (almost completely withered)). The “H (barnyard grass) herbicidal effect grade” value (barnyard grass [3]; [10]) was 3 (Herbicidal rate of 40% or more and less than 70%), the “herbicidal effect grade, C: oval-leafed pondweed” value (oval-leafed pondweed; [11]) was 4 (Herbicidal rate of 70% or more and less than 90%) and the “P (chickweed) herbicidal effect grade” value (chickweed; [10]) was 5 (Herbicidal rate of 90% or more (almost completely withered)). For the same compound, the “J: blackgrass, herbicidal effect grade” value (blackgrass [4]) was 0 (Herbicidal rate of 5% or less (almost no effect)), the “R: persian speedwell” value (persian speedwell) was 5 (Herbicidal rate of 90% or more (almost completely withered)) and the “Herbicidal effect on H (barnyard grass), foliage application” value (barnyard grass [5]) was 5 (Herbicidal rate of 90% or more (almost completely withered)). For the same compound, the “K (Italian ryegrass) herbicidal effect grade” value (Italian ryegrass; [10]) was 5 (Herbicidal rate of 90% or more (almost completely withered)), the “M (velvetleaf) herbicidal effect grade” value (velvetleaf [6]; [10]) was 5 (Herbicidal rate of 90% or more (almost completely withered)) and the “M: velvetleaf, herbicidal effect grade” value (velvetleaf [7]) was 3 (Herbicidal rate of 40% or more and less than 70%). For the same compound, the “F: southern crabgrass” value (southern crabgrass) was 0 (Herbicidal rate of 5% or less (almost no effect)), the “herbicidal effect grade, A: late watergrass” value (late watergrass [8]; [11]) was 4 (Herbicidal rate of 70% or more and less than 90%) and the “J (blackgrass) herbicidal effect grade” value (blackgrass [9]; [10]) was 1 (Herbicidal rate of 5% or more and less than 20%). The “G (green foxtail) herbicidal effect grade” value (green foxtail; [10]) was 5 (Herbicidal rate of 90% or more (almost completely withered)).
In the case of `COc1ccc2c(-c3c(O)c(Cl)nn(C)c3=O)c(-c3ccccc3OC)sc2c1` [Compound No. 3-088, 6-chloro-5-hydroxy-4-(6-methoxy-2-(2-methoxyphenyl)benzo[b]thiophen-3-yl)-2-methylpyridazin-3(2H)-one], the “H: barnyard grass” value (barnyard grass [1]) is reported as 5 (Herbicidal rate of 90% or more (almost completely withered)), the “O: lambsquarters” value (lambsquarters) is reported as 5 (Herbicidal rate of 90% or more (almost completely withered)) and the “Herbicidal effect, A: late watergrass” value (late watergrass [2]) is reported as 5 (Herbicidal rate of 90% or more (almost completely withered)). For the same compound, the “H: barnyard grass” value (barnyard grass [3]; three weeks after application) was 4 (Herbicidal rate of 70% or more and less than 90%), the “herbicidal effect rating, C” value (oval-leafed pondweed) was 3 (Herbicidal rate of 40% or more and less than 70%) and the “P: chickweed, herbicidal effect grade” value (chickweed) was 5 (Herbicidal rate of 90% or more (almost completely withered)). For the same compound, the “J: blackgrass, herbicidal effect grade” value (blackgrass [4]) was 0 (Herbicidal rate of 5% or less (almost no effect)), the “R: persian speedwell” value (persian speedwell) was 4 (Herbicidal rate of 70% or more and less than 90%) and the “herbicidal effect on barnyard grass (H)” value (barnyard grass [5]) was 5 (Herbicidal rate of 90% or more (almost completely withered)). For the same compound, the “K: Italian ryegrass, herbicidal effect grade” value (Italian ryegrass; three weeks after application) was 0 (Herbicidal rate of 5% or less (almost no effect)), the “M: velvetleaf, herbicidal effect grade” value (velvetleaf [6]; three weeks after application) was 4 (Herbicidal rate of 70% or more and less than 90%) and the “M: velvetleaf, herbicidal effect grade” value (velvetleaf [7]) was 5 (Herbicidal rate of 90% or more (almost completely withered)). For the same compound, the “F: southern crabgrass” value (southern crabgrass) was 4 (Herbicidal rate of 70% or more and less than 90%), the “herbicidal effect rating, A: late watergrass” value (late watergrass [8]) was 3 (Herbicidal rate of 40% or more and less than 70%) and the “J: blackgrass, herbicidal effect grade” value (blackgrass [9]; three weeks after application) was 3 (Herbicidal rate of 40% or more and less than 70%). The “G: green foxtail, herbicidal effect grade” value (green foxtail; three weeks after application) was 5 (Herbicidal rate of 90% or more (almost completely withered)).
In the case of `COc1ccccc1-c1sc2cc(OCC(F)(F)F)ccc2c1-c1c(O)c(C)nn(C)c1=O` [Compound No. 3-116, 5-hydroxy-4-(2-(2-methoxyphenyl)-6-(2,2,2-trifluoroethoxy)benzo[b]thiophen-3-yl)-2,6-di methylpyridazin-3 (2H)-one], the “H: barnyard grass” value (barnyard grass [1]) is reported as 5 (Herbicidal rate of 90% or more (almost completely withered)), the “O: lambsquarters” value (lambsquarters) is reported as 5 (Herbicidal rate of 90% or more (almost completely withered)) and the “Herbicidal effect, A: late watergrass” value (late watergrass [2]) is reported as 5 (Herbicidal rate of 90% or more (almost completely withered)). The “H: barnyard grass” value (barnyard grass [3]; three weeks after application) was 5 (Herbicidal rate of 90% or more (almost completely withered)), the “herbicidal effect rating, C” value (oval-leafed pondweed) was 4 (Herbicidal rate of 70% or more and less than 90%) and the “P: chickweed, herbicidal effect grade” value (chickweed) was 5 (Herbicidal rate of 90% or more (almost completely withered)). The “J: blackgrass, herbicidal effect grade” value (blackgrass [4]) was 4 (Herbicidal rate of 70% or more and less than 90%), the “R: persian speedwell” value (persian speedwell) was 5 (Herbicidal rate of 90% or more (almost completely withered)) and the “herbicidal effect on barnyard grass (H)” value (barnyard grass [5]) was 5 (Herbicidal rate of 90% or more (almost completely withered)). For the same compound, the “K: Italian ryegrass, herbicidal effect grade” value (Italian ryegrass; three weeks after application) was 5 (Herbicidal rate of 90% or more (almost completely withered)), the “M: velvetleaf, herbicidal effect grade” value (velvetleaf [6]; three weeks after application) was 5 (Herbicidal rate of 90% or more (almost completely withered)) and the “M: velvetleaf, herbicidal effect grade” value (velvetleaf [7]) was 4 (Herbicidal rate of 70% or more and less than 90%). The “F: southern crabgrass” value (southern crabgrass) was 5 (Herbicidal rate of 90% or more (almost completely withered)), the “herbicidal effect rating, A: late watergrass” value (late watergrass [8]) was 4 (Herbicidal rate of 70% or more and less than 90%) and the “J: blackgrass, herbicidal effect grade” value (blackgrass [9]; three weeks after application) was 5 (Herbicidal rate of 90% or more (almost completely withered)). For the same compound, the “G: green foxtail, herbicidal effect grade” value (green foxtail; three weeks after application) was 5 (Herbicidal rate of 90% or more (almost completely withered)).
